# Source: patent US5786324A, “Synthetic peptides with bactericidal activity and endotoxin neutralizing activity for gram negative bacteria and methods for their use” (priority 1994, dated 1998)
# “Also recorded” adds a separate entry of the source. Like-named read-outs stand apart in the source and are kept apart here. No end group written: not given here.
# B1: B/PI: 55 kD bactericidal/permeability increasing protein purified from human neutrophil granules (protein)
# chain: MRENMARGPCNAPRWVSLMVLVAIGTAVTAAVNPGVVVRISQKGLDYASQQGTAALQKELKRIKIPDYSDSFKIKHLGKGHYSFYSMDIREFQLPSSQISMVPNVGLKFSISNANIKISGKWKAQKRFLKMSGNFDLSIEGMSISADLKLGSNPTSGKPTITCSSCSSHINSVHVHISKSKVGWLIQLFHKKIESALRNKMNSQVCEKVTNSVSSKLQPYFQTLPVMTKIDSVAGINYGLVAPPATTAETLDVQMKGEFYSENHHNPPPFAPPVMEFPAAHDRMVYLGLSDYFFNTAGLVYQEAGVLKMTLRDDMIPKESKFRLTTKFFGTFLPEVAKKFPNMKIQIHVSASTPPHLSVQPTGLTFYPAVDVQAFAVLPNSSLASLFLIGMHTTGSMEVSAESNRLVGELRLDRLLLQLKHSNIGPFPVELLQDIMNYIVPILVLPRVNEKLQKGFPLPTPARVQLYNVVLQPHQNFLLFGADVVYK
# Experiments:
# [1] = tested on: Pseudomonas aeruginosa type 1; type: cell-based
# Protocol: Bactericidal activity can be evaluated against a variety of bacteria such as Pseudomonas spp including aeruginosa and P. cepacia, E. coli B, and Staphylococcus aureus. The preferred organism is P. aeruginosa. Bactericidal activity is determined by identifying the effective dose for killing as the molar concentration of the peptide which results in at least a 60% killing of the bacteria, as determined by standard methods. Preferably, the peptide has an effective dose at a concentration of about 1×10^-4 M to about 1×10^-10 M, and more preferably 1×10^-7 M to 1×10^-9M . […] The effective dose for bactericidal activity of B/PI is seen at about […] . Bactericidal activity can also be determined by calculating a lethal dose 50 (LD50) using standard methods. The LD50 is that amount of peptide or protein that kills 50% of the bacteria when measured using standard dose response methods. A bactericidal peptide preferably has an LD50 of about 10^-4 M to about 10^-9 M , more preferably about 10^-7 to 10^-9 M .
# (§1) The synthetically produced peptides were assayed for bactericidal activity against Pseudomonas aeruginosa, type 1, P. cepacia ATCC 25608, E. coli B, and Staphylococcus aureus 502A by standard methods.
# (§2) Pseudomonas aeruginosa type 1 is a clinical isolate maintained in the laboratory since 1972. The isolate remains a smooth strain and was serotyped by the scheme of Homma. Homma, Jpn. J. Exp. Med., 46:329 (1976). A rough strain E. coli B and S. aureus 502A were obtained from Paul Quie, University of Minnesota. The characteristics of the S. aureus strain have been described in Shinefield et al., Amer. J. Dis. Chil., 105:646 (1963). Pseudomonas cepacia ATCC 25608 was purchased from the American Type Culture Collection in 1980. S. aureus and E. coli were maintained on nutrient agar plates and the Pseudomonas strains were maintained on blood agar plates.
# (§3) Pyrogen-free solutions were used throughout this assay and all methods which follow. Log phase bacteria were prepared from a culture in brain heart infusion broth as previously described except that bacteria were washed and resuspended in saline with adjustment to an optical density at 650 nm which would yield 3×10^8 CFU/ml. Bacteria were then diluted 1:10 in 0.08M citrate phosphate buffer, pH 5.6 or pH 7.0, for use in the assay. S. aureus rapidly lost viability in the pH 5.6 buffer and was studied only at pH 7.0. Bactericidal activity was determined by dose response and where an LD50 is indicated, it was determined by linear regression.
# P. cepacia ATCC 25608 = test: Bactericidal assay, P. cepacia; type: cell-based, Pseudomonas cepacia; conditions: for % Killing of 5 × 10^6 Bacteria: P. cepacia
# Protocol: as §1, §2, §3
# E. coli B = test: Bactericidal assay, E. coli B; type: cell-based
# Protocol: as §1, §2, §3
# [2] = tested on: Staphylococcus aureus 502A; type: cell-based
# Protocol: as §1, §2, §3
# Human lung fibroblasts = test: Toxicity for human lung fibroblasts, trypan blue exclusion; type: cell-based; conditions: 1.5 × 10^-5 M, 30 minutes; for Percent Viability DMEM: DMEM plus 10% FCS; for Percent Viability PBS: pH 7.4
# Protocol: The synthetic peptides were assayed for toxicity to cultured eukaryotic cells. Human lung fibroblasts were grown in monolayers in Dulbecco's Modified Eagles' Medium (DMEM) with 10% fetal calf serum (FCS) and originated as primary cultures of lung mesenchymal cells. The cells were trypsinized, washed with either DMEM plus FCS or phosphate-buffered saline (PBS), pH 7.4, and incubated with peptide at a final cell concentration of 1×10^7 /ml. Nine volumes of cell suspension were diluted with one volume of 0.4% trypan blue and the cells were counted with a hemocytometer, while also determining the fraction of cells which were increased in permeability to dye. There was no significant loss of cell number due to exposure of the fibroblasts to peptide.
# ^a Viability was determined by trypan blue exclusion following
# incubation of cells with peptide for 30 minutes in DMEM plus 10% FCS or i
# E. coli 055: B5 LPS = test: Limulus amoebocyte lysate assay, neutralization of endotoxin; type: biochemical; conditions: for peptide concentration which neutralized endotoxin (100% inhibition of LPS-induced gelation): 0.04 endotoxin units of E. coli 055: B5 LPS; for Effective Dose (μg/0.2 ml) / Effective Dose M (× 10^-4): Table 7, dose required to inhibit clotting of LAL by 100%, 0.04 endotoxin units of E. coli LPS
# Excerpt: The peptide selected can also have endotoxin neutralizing activity. […] Endotoxin neutralizing activity can also be measured by calculating an inhibitory dose 50 […] using standard does response methods. An inhibitory dose 50 is that amount of peptide that can inhibit 50% of the activity of endotoxin. Endotoxin activity can also be measured by determining the amount of release of tumor necrosis factor alpha (TNFα) from a macrophage cell line or by evaluating the symptoms of shock in animals. Peptides preferably neutralized endotoxin at a molar concentration of about 1×10^-4 M to about 10^-8 M , more preferably about 10^-5 M to about 10^-6 M .
# The ability of synthetic peptides to neutralize endotoxin was detected with the E-TOXATE kit manufactured by Sigma Chemicals, St. Louis, Mo. […] Peptide was incubated with LPS at room temperature for 10 minutes in 100 μl of a 1:2 dilution of pyrogen-free saline, pH 6.4. The reaction was started by addition of 100 μl of amoebocyte lysate and the final volume was 200 μl.
# ^a The dose of peptide required to inhibit clotting of LAL by 100%.
# Each tube contained 0.04 endotoxin units of E. coli LPS.
# [3] = Storage stability of bactericidal activity of B/PI in elution buffer; type: physicochemical; conditions: 0.05M glycine buffer, pH 2.5, with 0.5M NaCl; 4° C. and -70° C.; prolonged periods
# Protocol: Recombinant products can be purified from infected cells by immunoaffinity chromatography with the appropriate immobilized rabbit anti-peptide antibody or a mouse monoclonal antibody to B/PI. B/PI was reproducibly purified by application of partially purified samples of 2 mg protein to a 1.5×180 cm Toyopearl HW55S (Toso Haas) column or 200 mg protein to a TSX2000 HPLC (Beckman) column. The elution buffer for both columns is 0.05M glycine buffer, pH 2.5, with 0.5M NaCl. Recovery of B/PI protein was excellent and 100% of bactericidal activity is retained. The bactericidal activity of B/PI in this buffer was stable at 4° C. and at -70° C. for prolonged periods. The columns resolve protein standards over the range of 2-70 kD and can be used for all steps separation of fragments of B/PI by molecular weight. Reverse phase HPLC can be used if necessary.
molecule,measurement,setting,value
"CC(C)C[C@H](NC(=O)[C@H](Cc1ccccc1)NC(=O)[C@H](CCCNC(=N)N)NC(=O)[C@H](CCCCN)NC(=O)[C@H](CCC(N)=O)NC(=O)[C@H](C)NC(=O)[C@H](CCCCN)NC(=O)[C@H](Cc1c[nH]c2ccccc12)NC(=O)[C@H](CCCCN)NC(=O)[C@@H](N)CS)C(=O)N[C@@H](CCCCN)C(=O)O [Peptide 2, ckwkaqkrflk]",% Killing of 5 × 10^6 Bacteria,"[1]; type 1, 1.5e-6 M, pH 5.6",83%
same,% Killing of 5 × 10^6 Bacteria,"P. cepacia ATCC 25608; pH 5.6, 1.5 × 10^-5 M",80%
same,% Killing of 5 × 10^6 Bacteria,"P. cepacia ATCC 25608; pH 7.0, 1.5 × 10^-5 M",78%
same,% Killing of 5 × 10^6 Bacteria,"E. coli B; E. coli B, pH 5.6, 1.5 × 10^-5 M, listed as C#90-99",98%
same,% Killing of 5 × 10^6 Bacteria,"E. coli B; E. coli, pH 7.0, 1.5 × 10^-5 M",90%
same,% Killing of 5 × 10^6 Bacteria,"[2]; 502A, 3e-5 M, pH 7",95%
same,Percent Viability DMEM,Human lung fibroblasts,98.4%
same,Percent Viability PBS,Human lung fibroblasts,94.7%
"CEFYSENHHNPKWKAQKRFLK [Peptide 17, cefysenhhnpkwkaqkrflk]",% Killing of 5 × 10^6 Bacteria,"[1]; type 1, 3.0e-6 M, pH 5.6",74%
same,% Killing of 5 × 10^6 Bacteria,"E. coli B; E. coli B, pH 5.6, 3.0 × 10^-5 M",71%
same,Percent Viability DMEM,Human lung fibroblasts,99.2%
same,Percent Viability PBS,Human lung fibroblasts,92.3%
cefysenhhnp(g) [Peptide 3],% Killing of 5 × 10^6 Bacteria,"[1]; P. aeruginosa, pH 5.6, 1.2 × 10^-4 M",0%
same,% Killing of 5 × 10^6 Bacteria,"[1]; P. aeruginosa, pH 7.0, 1.2 × 10^-4 M",0%
same,Effective Dose Bactericidal pH 5.6 P. aeruginosa Molar Concentration,"[1]; Table 5, pH 5.6",-- (not active at concentrations of 1.2 × 10^-4 M or less)
same,% Killing of 5 × 10^6 Bacteria,"P. cepacia ATCC 25608; pH 5.6, 1.2 × 10^-4 M",0%
same,% Killing of 5 × 10^6 Bacteria,"P. cepacia ATCC 25608; pH 7.0, 1.2 × 10^-4 M",0%
same,% Killing of 5 × 10^6 Bacteria,"E. coli B; E. coli, pH 5.6, 1.2 × 10^-4 M",0%
same,% Killing of 5 × 10^6 Bacteria,"E. coli B; E. coli, pH 7.0, 1.2 × 10^-4 M",0%
same,% Killing of 5 × 10^6 Bacteria,"[2]; S. aureus, pH 7.0, 1.2 × 10^-4 M",0%
same,peptide concentration which neutralized endotoxin (100% inhibition of LPS-induced gelation),E. coli 055: B5 LPS,120 µM
same,Effective Dose (μg/0.2 ml),E. coli 055: B5 LPS,34 μg/0.2 ml
same,Effective Dose M (× 10^-4),E. coli 055: B5 LPS,1.2 M (× 10^-4)
same,Effective Dose Endotoxin Neutralization (Molar Concentration),"E. coli 055: B5 LPS; Table 8, LAL",120 µM
B1,LD50 for P. aeruginosa,"[1]; 5×10^6 CFU, pH 5.6, dose response, linear regression",3.4 nM
same,% Killing of 5 × 10^6 Bacteria,"[1]; P. aeruginosa, pH 5.6, 4.1 × 10^-9 M",50 ± 5%
same,% Killing of 5 × 10^6 Bacteria,"[1]; P. aeruginosa, pH 5.6, 5.5 × 10^-9 M",87 ± 8%
same,% Killing of 5 × 10^6 Bacteria,"[1]; P. aeruginosa, pH 7.0, 4.1 × 10^-9 M",35 ± 3%
same,% Killing of 5 × 10^6 Bacteria,"P. cepacia ATCC 25608; pH 5.6, 4.1 × 10^-9 M",0%
same,% Killing of 5 × 10^6 Bacteria,"P. cepacia ATCC 25608; pH 7.0, 4.1 × 10^-9 M",0%
same,killing of P. cepacia (in words),"P. cepacia ATCC 25608; concentration 20fold higher: 9.1×10^-8 M, approximately 5 μg protein/ml",not killed; also recorded: resisted bactericidal activity
same,% Killing of 5 × 10^6 Bacteria,"E. coli B; E. coli B, pH 5.6, 5.5 × 10^-9 M",71%
same,% Killing of 5 × 10^6 Bacteria,"E. coli B; E. coli, pH 5.6, 4.1 × 10^-9 M",35 ± 4%
same,% Killing of 5 × 10^6 Bacteria,"E. coli B; E. coli, pH 7.0, 4.1 × 10^-9 M",25 ± 5%
same,% Killing of 5 × 10^6 Bacteria,"[2]; S. aureus, pH 7.0, 4.1 × 10^-9 M",0%
same,peptide concentration which neutralized endotoxin (100% inhibition of LPS-induced gelation),E. coli 055: B5 LPS,about 10^-8 M
same,Effective Dose (μg/0.2 ml),E. coli 055: B5 LPS,0.165 μg/0.2 ml
same,Effective Dose M (× 10^-4),E. coli 055: B5 LPS,0.00015 M (× 10^-4)
same,stability of bactericidal activity on storage,[3],stable
